In experiment [1] the target is ROCK2 (Homo sapiens (Human), UniProt O75116). The experiment can be described thus: FRET-based Z'-Lyte kinase assay, ROCK2.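 Note: kinase phosphorylates a coumarin/fluorescein FRET peptide, then a protease cleaves unphosphorylated peptide, read as donor/acceptor emission ratio after 400 nm excitation.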 The note with it: read-out: IC50 ± SD (μM) ROCK2. The experiment is classed as biochemical.
Source text: (§1) A) In the primary reaction, the Rho kinases phosphorylates a single serine or threonine residue in a synthetic FRET-peptide. This FRET-peptide is doubly labeled with a fluorophore at each end—coumarin (the FRET donor) on one end and fluorescein (the FRET acceptor) on the other—and also contains a single phosphorylation site which either overlaps with or lies adjacent to the proteolytic site. B) In the secondary reaction, a site-specific protease recognizes and cleaves the non-phosphorylated FRET-peptide. Cleavage disrupts FRET between the donor and acceptor fluorophores on the FRET-peptide, whereas uncleaved, phosphorylated FRET-peptides maintain FRET. Kinases phosphorylated FRET-peptides cannot be cleaved by the protease. […] Cleavage disrupts FRET and causes a decrease in the fluorescein fluorescence signal and a strong increase in the coumarin fluorescence signal. Therefore the extension of the phosphprylation can be measured by FRET-signal remaining the protease reaction. The assay uses a ratiometric method, which calculates the ratio of donor emission to acceptor emission (the emission ratio) after excitation of the donor fluorophore at 400 nm, to quantitate reaction progress.
(§2) All compounds were systematically screened against ROCK1 and ROCK2.
Experiment [2] has as its target ROCK1 (Homo sapiens (Human), UniProt Q13464). Put plainly: FRET-based Z'-Lyte kinase assay, ROCK1.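 For all read-outs here: kinase phosphorylates a coumarin/fluorescein-labelled FRET peptide, then a protease cleaves unphosphorylated peptide, progress read as donor to acceptor emission ratio after 400 nm excitation.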 The experiment is classed as biochemical. The note with it: for IC50: read-out: IC50 ± SD (μM) ROCK1; for inhibition at 50 µM: read-out: ROCK1 % inhibition @ 50 μM.
Source text: as §1, §2

The values that follow come from US9221808B2, “Pyridylthiazole-based ureas as inhibitors of Rho associated protein kinase (ROCK) and methods of use” (H. Lee Moffitt Cancer Center and Research Institute, Inc., priority 2010, dated 2015).

Molecules are shown by their SMILES. Several values for one entry are separate records, joined by “and”; a condition that tells them apart may be missing. Equal entries are not always repeated. Structures can show the parent of a compound that is named as a salt. Where two headings read alike, the source gives them in different places. Where only a bound is given, the exact number is not on record here.

ROCK2, sequence (O75116 whole entry, species assumed): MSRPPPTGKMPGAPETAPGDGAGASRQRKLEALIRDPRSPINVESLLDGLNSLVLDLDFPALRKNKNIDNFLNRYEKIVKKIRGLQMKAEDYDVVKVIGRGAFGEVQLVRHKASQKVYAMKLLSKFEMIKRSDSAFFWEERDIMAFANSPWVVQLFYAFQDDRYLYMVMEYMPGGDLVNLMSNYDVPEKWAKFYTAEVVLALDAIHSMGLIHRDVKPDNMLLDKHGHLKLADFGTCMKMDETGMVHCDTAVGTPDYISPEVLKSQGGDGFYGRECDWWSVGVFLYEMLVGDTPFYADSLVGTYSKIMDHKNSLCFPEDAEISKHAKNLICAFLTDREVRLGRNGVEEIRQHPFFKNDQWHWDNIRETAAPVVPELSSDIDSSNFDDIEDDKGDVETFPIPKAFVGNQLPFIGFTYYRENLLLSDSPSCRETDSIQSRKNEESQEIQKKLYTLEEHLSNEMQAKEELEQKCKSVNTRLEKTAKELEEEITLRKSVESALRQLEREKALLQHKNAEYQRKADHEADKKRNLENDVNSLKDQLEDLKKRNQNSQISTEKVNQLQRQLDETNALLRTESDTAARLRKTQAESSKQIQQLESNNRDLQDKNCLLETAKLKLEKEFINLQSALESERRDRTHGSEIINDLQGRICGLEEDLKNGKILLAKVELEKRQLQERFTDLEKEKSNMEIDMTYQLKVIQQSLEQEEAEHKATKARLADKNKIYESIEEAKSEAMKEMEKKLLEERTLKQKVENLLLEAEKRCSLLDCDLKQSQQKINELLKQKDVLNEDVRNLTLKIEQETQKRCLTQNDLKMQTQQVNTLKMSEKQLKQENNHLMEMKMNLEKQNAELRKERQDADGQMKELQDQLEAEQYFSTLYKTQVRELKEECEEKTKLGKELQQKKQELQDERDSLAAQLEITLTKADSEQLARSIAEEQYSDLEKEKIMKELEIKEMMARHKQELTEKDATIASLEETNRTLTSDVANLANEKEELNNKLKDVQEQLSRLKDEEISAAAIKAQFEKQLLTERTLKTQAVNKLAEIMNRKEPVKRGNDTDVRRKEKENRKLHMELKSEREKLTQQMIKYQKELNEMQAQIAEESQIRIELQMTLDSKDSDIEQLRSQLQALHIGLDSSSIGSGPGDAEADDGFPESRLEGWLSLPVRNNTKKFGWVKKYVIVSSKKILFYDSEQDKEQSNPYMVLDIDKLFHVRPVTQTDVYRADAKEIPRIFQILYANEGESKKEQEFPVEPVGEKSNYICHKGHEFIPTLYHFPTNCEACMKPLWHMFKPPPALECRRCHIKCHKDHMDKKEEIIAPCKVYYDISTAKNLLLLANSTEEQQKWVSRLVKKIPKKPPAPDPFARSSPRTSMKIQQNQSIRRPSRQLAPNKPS
ROCK1, sequence (Q13464 whole entry, species assumed): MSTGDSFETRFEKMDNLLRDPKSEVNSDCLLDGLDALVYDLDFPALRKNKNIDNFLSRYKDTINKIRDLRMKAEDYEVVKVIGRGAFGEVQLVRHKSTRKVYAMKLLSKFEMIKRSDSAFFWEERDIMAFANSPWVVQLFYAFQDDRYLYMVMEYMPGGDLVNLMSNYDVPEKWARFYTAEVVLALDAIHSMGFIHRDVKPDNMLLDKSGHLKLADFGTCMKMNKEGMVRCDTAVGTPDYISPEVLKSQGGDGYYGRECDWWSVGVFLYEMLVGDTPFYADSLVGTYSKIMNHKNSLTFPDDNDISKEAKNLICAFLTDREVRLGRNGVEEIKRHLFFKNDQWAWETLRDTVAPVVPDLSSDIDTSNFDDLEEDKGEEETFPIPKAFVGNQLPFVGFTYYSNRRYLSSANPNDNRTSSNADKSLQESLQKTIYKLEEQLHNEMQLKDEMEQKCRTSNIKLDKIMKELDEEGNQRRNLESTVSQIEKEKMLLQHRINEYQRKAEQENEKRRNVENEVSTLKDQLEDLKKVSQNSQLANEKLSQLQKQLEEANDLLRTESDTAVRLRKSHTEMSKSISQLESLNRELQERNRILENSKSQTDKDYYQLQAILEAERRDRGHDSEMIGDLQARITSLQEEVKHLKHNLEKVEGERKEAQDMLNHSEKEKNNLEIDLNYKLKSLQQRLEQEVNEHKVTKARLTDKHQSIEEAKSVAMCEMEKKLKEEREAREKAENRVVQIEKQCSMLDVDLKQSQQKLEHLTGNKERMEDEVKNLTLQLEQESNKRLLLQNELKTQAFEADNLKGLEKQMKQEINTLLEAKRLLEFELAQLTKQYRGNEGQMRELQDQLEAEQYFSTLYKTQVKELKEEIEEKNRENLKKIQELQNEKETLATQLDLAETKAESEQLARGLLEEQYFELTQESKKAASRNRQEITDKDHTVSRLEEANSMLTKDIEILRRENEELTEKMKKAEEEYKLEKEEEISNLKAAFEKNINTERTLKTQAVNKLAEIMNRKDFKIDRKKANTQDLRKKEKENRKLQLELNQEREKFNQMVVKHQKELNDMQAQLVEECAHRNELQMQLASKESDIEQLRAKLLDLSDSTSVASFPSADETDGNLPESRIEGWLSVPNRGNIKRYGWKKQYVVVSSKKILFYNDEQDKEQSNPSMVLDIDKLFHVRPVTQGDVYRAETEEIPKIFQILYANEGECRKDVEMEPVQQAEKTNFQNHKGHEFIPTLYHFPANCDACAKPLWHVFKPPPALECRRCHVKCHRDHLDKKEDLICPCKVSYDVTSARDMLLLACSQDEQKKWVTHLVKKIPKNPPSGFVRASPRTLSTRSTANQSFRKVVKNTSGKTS

On to `O=C(NCc1ccccc1)Nc1nc(-c2ccncc2)cs1` [Compound 1aa, 1-Benzyl-3-(4-(pyridin-4-yl)thiazol-2-yl)urea], for which the IC50 in experiment [1] is 0.09 µM and 0.05 µM; in experiment [2], 0.15 µM and 0.17 µM.
In the case of `O=C(NCc1ccc(Cl)cc1)Nc1nc(-c2ccncc2)cs1` [Compound 1ab, 1-(4-Chlorobenzyl)-3-(4-(pyridin-4-yl)thiazol-2-yl)urea], the results for the IC50 in experiment [1] and in experiment [2] were 1.1 ± 0.16 µM and 2.39 ± 0.53 µM, respectively.
For `O=C(NCc1ccccc1F)Nc1nc(-c2ccncc2)cs1` [Compound 1ac, 1-(2-Fluorobenzyl)-3-(4-(pyridin-4-yl)thiazol-2-yl)urea], in that order: 0.12 ± 0.01 µM and 0.4 ± 0.03 µM.
Take `COc1ccccc1CNC(=O)Nc1nc(-c2ccncc2)cs1` [Compound 1ad, 1-(2-Methoxybenzyl)-3-(4-(pyridin-4-yl)thiazol-2-yl)urea]: the figures for the IC50 in experiment [1] and in experiment [2] were 0.47 ± 0.03 µM and 1.4 ± 0.11 µM, respectively.
In the case of `O=C(NCc1ccccc1Cl)Nc1nc(-c2ccncc2)cs1` [Compound 1ae, 1-(2-Chlorobenzyl)-3-(4-(pyridin-4-yl)thiazol-2-yl)urea], the IC50 in experiment [1] came out at 0.11 ± 0.01 µM; in experiment [2] it was 0.34 ± 0.02 µM.
Regarding `COc1cccc(CNC(=O)Nc2nc(-c3ccncc3)cs2)c1` [Compound 1af, 1-(3-Methoxybenzyl)-3-(4-(pyridin-4-yl)thiazol-2-yl)urea], the half-maximal inhibitory concentration (IC50) in experiment [1] is 0.01 µM and 0.011 µM; in experiment [2], 0.06 µM and 0.027 µM.
With `COc1cccc(CNC(=O)Nc2nc(-c3ccncc3)cs2)c1` [Compound 1af-HCl, 1-(3-methoxybenzyl)-3-(4-(pyridin-4-yl)thiazol-2-yl)urea hydrochloride], the IC50 came to 0.014 ± 0.01 µM in experiment [1] (hydrochloride) and 0.023 ± 0.01 µM in experiment [2] (hydrochloride).
Regarding `COc1cccc(CNC(=O)Nc2nc(-c3ccncc3)cs2)c1` [Compound 1af-Mes, 1-(3-methoxybenzyl)-3-(4-(pyridin-4-yl)thiazol-2-yl)urea methanesulfonate], the IC50 in experiment [1] (methanesulfonate) was 0.01 µM; in experiment [2] (methanesulfonate), 0.03 ± 0.01 µM.
Consider `O=C(NCc1ccc(Cl)cc1Cl)Nc1nc(-c2ccncc2)cs1` [Compound 1ag, 1-(2,4-Dichlorobenzyl)-3-(4-(pyridin-4-yl)thiazol-2-yl)urea], for which the half-inhibitory concentration (IC50) amounted to 0.4 ± 0.07 µM in experiment [1] and 1.88 ± 0.17 µM in experiment [2].
For `C[C@@H](NC(=O)Nc1nc(-c2ccncc2)cs1)c1ccccc1` [Compound 1ah, (R)-1-(1-Phenylethyl)-3-(4-(pyridin-4-yl)thiazol-2-yl)urea], the IC50 in experiment [1] is 0.012 ± 0.004 µM; in experiment [2], 0.043 µM and 0.019 µM. Moreover, the “fold more potent than parent compound 1aa” value in experiment [2] (comparator 1aa) turned out to be 7 fold. Further, in experiment [2] (comparator: enantiomer (1ai for 1ah, 1bf for 1be)), the “fold more potent/active than its enantiomer” value stood at 215 fold.
On to `C[C@H](NC(=O)Nc1nc(-c2ccncc2)cs1)c1ccccc1` [Compound 1ai, (S)-1-(1-Phenylethyl)-3-(4-(pyridin-4-yl)thiazol-2-yl)urea], for which the IC50 was 1.6 µM and 1.9 µM in experiment [1]; 3.56 µM and 3.29 µM in experiment [2].
On to `O=C(NCc1cccc(F)c1)Nc1nc(-c2ccncc2)cs1` [Compound 1aj, 1-(3-Fluorobenzyl)-3-(4-(pyridin-4-yl)thiazol-2-yl)urea], for which the IC50 in experiment [1] was 0.06 µM and 0.05 µM; in experiment [2] it was 0.14 µM and 0.1 µM.
As for `O=C(NCc1ccco1)Nc1nc(-c2ccncc2)cs1` [Compound 1ak1, 1-(Furan-2-ylmethyl)-3-(4-(pyridin-4-yl)thiazol-2-yl)urea], the values for the IC50 in experiment [1] and in experiment [2] were 0.38 ± 0.03 µM and 1.17 ± 0.15 µM, respectively.
For `O=C(NCc1ccc(F)cc1)Nc1nc(-c2ccncc2)cs1` [Compound 1ak, 1-(4-Fluorobenzyl)-3-(4-(pyridin-4-yl)thiazol-2-yl)urea], in that order: 0.19 µM and 0.57 ± 0.05 µM.
In the same order, the values of `COc1cccc(CNC(=O)N(C)c2nc(-c3ccncc3)cs2)c1` [Compound 1al, 3-(3-Methoxybenzyl)-1-methyl-1-(4-(pyridin-4-yl)thiazol-2-yl)urea] are 0.002 ± 0.0015 µM and 0.06 ± 0.04 µM.
In the case of `COc1ccc(CNC(=O)Nc2nc(-c3ccncc3)cs2)cc1.Cl` [Compound 1am-HCl, 1-(4-methoxybenzyl)-3-(4-(pyridin-4-yl)thiazol-2-yl)urea hydrochloride], the “ROCK1 % inhibition @ 50 μM” value in experiment [2] (50 μM compound) is recorded as “ROCK1 % inhibition @ 50 μM: 15.26 ± 0.91”.
Take `COc1ccc(CNC(=O)Nc2nc(-c3ccncc3)cs2)cc1` [Compound 1am-Mes, 1-(4-methoxybenzyl)-3-(4-(pyridin-4-yl)thiazol-2-yl)urea methanesulfonate]: the half-inhibitory concentration (IC50) in experiment [1] is 7.42 ± 2.29 µM; in experiment [2] it was 36.2 ± 10 µM.
Take `O=C(NCc1cccc(Cl)c1)Nc1nc(-c2ccncc2)cs1` [Compound 1an, 1-(3-Chlorobenzyl)-3-(4-(pyridin-4-yl)thiazol-2-yl)urea]: the IC50 in experiment [1] is 0.06 ± 0.01 µM; in experiment [2] it was 0.1 µM and 0.14 µM.
Take `O=C(NCc1cccnc1)Nc1nc(-c2ccncc2)cs1` [Compound 1ao, 1-(Pyridin-3-ylmethyl)-3-(4-(pyridin-4-yl)thiazol-2-yl)urea]: the IC50 stood at 0.49 ± 0.07 µM in experiment [1] and 0.91 ± 0.15 µM in experiment [2].
Turning to `O=C(NCc1ccccn1)Nc1nc(-c2ccncc2)cs1` [Compound 1ap, 1-(Pyridin-2-ylmethyl)-3-(4-(pyridin-4-yl)thiazol-2-yl)urea], the IC50 was found to be 1.44 ± 0.22 µM in experiment [1] and 1.82 ± 0.18 µM in experiment [2].
As to `O=C(NCc1ccc([N+](=O)[O-])cc1)Nc1nc(-c2ccncc2)cs1` [Compound 1az, 1-(4-Nitrobenzyl)-3-(4-(pyridin-4-yl)thiazol-2-yl)urea], in experiment [2] (50 μM compound), the inhibition at 50 µM worked out at 34.5%.
On the same count and under the same terms, then `COc1cc(CNC(=O)Nc2nc(-c3ccncc3)cs2)cc(OC)c1` [Compound 1bb, 1-(3,5-Dimethoxybenzyl)-3-(4-(pyridin-4-yl)thiazol-2-yl)urea], with 9.95%.
Consider `COc1cccc([C@@H](C)NC(=O)Nc2nc(-c3ccncc3)cs2)c1` [Compound 1bh, (R)-1-(1-(3-Methoxyphenyl)ethyl)-3-(4-(pyridin-4-yl)thiazol-2-yl)urea], for which the IC50 in experiment [1] turned out to be 0.009 ± 0.007 µM.
For `O=C(NCc1cccc(O)c1)Nc1nc(-c2ccncc2)cs1` [Compound 1bo-HCl, 1-(3-hydroxybenzyl)-3-(4-(pyridin-4-yl)thiazol-2-yl)urea], the IC50 in experiment [2] worked out at 0.009 µM.
With `O=C(NCc1cccc(OC(F)(F)F)c1)Nc1nc(-c2ccncc2)cs1` [Compound 1br, 1-(4-(Pyridin-4-yl)thiazol-2-yl)-3-(3-(trifluoromethoxy)benzyl)urea], the inhibition at 50 µM in experiment [2] (50 μM compound) came to 7.48%.
In the case of `COc1ccc([C@H](C)NC(=O)Nc2nc(-c3ccncc3)cs2)cc1` [Compound 1by, (S)-1-(1-(4-methoxyphenyl)ethyl)-3-(4-(pyridin-4-yl)thiazol-2-yl)urea], in experiment [2] (50 μM compound), the inhibition at 50 µM is 1.09%.
Consider `C[C@H](NC(=O)Nc1nc(-c2ccncc2)cs1)c1cccc(Cl)c1` [Compound 1ce, (S)-1-(1-(3-chlorophenyl)ethyl)-3-(4-(pyridin-4-yl)thiazol-2-yl)urea], for which the IC50 in experiment [2] is greater than 50 µM.
On to `O=C(NCc1cc(Cl)cc(Cl)c1)Nc1nc(-c2ccncc2)cs1` [Compound 1cg, 1-(3,5-dichlorobenzyl)-3-(4-(pyridin-4-yl)thiazol-2-yl)urea], for which the inhibition at 50 µM in experiment [2] (50 μM compound) was -6.26%.
Regarding `O=C(Nc1nc(-c2ccncc2)cs1)NC1Cc2ccccc2C1` [Compound 1cr, 1-(2,3-Dihydro-1H-inden-2-yl)-3-(4-(pyridin-4-yl)thiazol-2-yl)urea], the inhibition at 50 µM in experiment [2] (50 μM compound) stood at 40.9%.
In the case of `O=C(NCc1nc2ccccc2[nH]1)Nc1nc(-c2ccncc2)cs1` [Compound 1cs, 1-((1H-Benzo[d]imidazol-2-yl)methyl)-3-(4-(pyridin-4-yl)thiazol-2-yl)urea], the inhibition at 50 µM in experiment [2] (50 μM compound) was 40.9%.
Turning to `O=C(Nc1ccccc1)Nc1nc(-c2ccncc2)cs1` [Compound 6a, 1-Phenyl-3-(4-(pyridin-4-yl)thiazol-2-yl)urea], in experiment [2] (50 μM compound), the inhibition at 50 µM came to 10.4%.
The same measure, in the same setting: then `O=C(Nc1nc(-c2ccncc2)cs1)Nc1ccc(F)cc1F` [Compound 6b, 1-(2,4-Difluorophenyl)-3-(4-(pyridin-4-yl)thiazol-2-yl)urea], with 14.5%; and `O=C(Nc1ccc(F)cc1)Nc1nc(-c2ccncc2)cs1` [Compound 6c, 1-(4-Fluorophenyl)-3-(4-(pyridin-4-yl)thiazol-2-yl)urea], with 8.06%.
`O=C(Nc1nc(-c2ccncc2)cs1)Nc1ccccc1F` [Compound 6d, 1-(2-Fluorophenyl)-3-(4-(pyridin-4-yl)thiazol-2-yl)urea]: in experiment [2] (50 μM compound), the inhibition at 50 µM turned out to be 13.3%.
For `O=C(NC(=O)c1ccccc1)Nc1nc(-c2ccncc2)cs1` [Compound 8, N-(4-(Pyridin-4-yl)thiazol-2-ylcarbamoyl)benzamide], the inhibition at 50 µM in experiment [2] (50 μM compound) amounted to 16.3%.
For `O=C(Nc1nc(-c2ccncc2)cs1)N1CCN(Cc2ccccc2)C[C@@H]1Cc1ccccc1` [Compound 12b, (S)-2,4-Dibenzyl-N-(4-(pyridin-4-yl)thiazol-2-yl)piperazine-1-carboxamide], in experiment [2] (50 μM compound), the inhibition at 50 µM was 24.3%.
On the same count and under the same terms, then `O=C(Nc1nc(-c2ccncc2)cs1)N1CCN(C(=O)c2ccco2)CC1` [Compound 12c, 4-(Furan-2-carbonyl)-N-(4-(pyridin-4-yl)thiazol-2-yl)piperazine-1-carboxamide], with 35%; and `O=C(Nc1nc(-c2ccncc2)cs1)N1CCN(c2ccncn2)CC1` [Compound 12d, N-(4-(Pyridin-4-yl)thiazol-2-yl)-4-(pyrimidin-4-yl)piperazine-1-carboxamide], with 41.4%.
For the compound `O=C(Nc1nc(-c2ccncc2)cs1)N1CCN(c2cccnc2)CC1` [Compound 12e, 4-(Pyridin-3-yl)-N-(4-(pyridin-4-yl)thiazol-2-yl)piperazine-1-carboxamide], the inhibition at 50 µM in experiment [2] (50 μM compound) stood at 14%.
For the compound `O=C(Nc1nc(-c2ccncc2)cs1)N1CCN(CC2CCCO2)CC1` (stereo not shown) [Compound 12f, N-(4-(Pyridin-4-yl)thiazol-2-yl)-4-((tetrahydrofuran-2-yl)methyl)piperazine-1-carboxamide], the inhibition at 50 µM in experiment [2] (50 μM compound) is -0.21%.

Broadly, the IC50 is the point on the concentration scale where inhibition reaches its midpoint. As usually defined, the inhibition is the change of the read-out against control, counted positive when it falls.
